“Also recorded” adds a separate entry of the source. Some results are limits rather than exact numbers.

In one assay the test system is B6 mice. Briefly: Fatty liver in B6 mice raised 20 weeks on high fat/high sugar diet. Format: in vivo, mouse. Conditions: high fat/high sugar diet + 5% EPA-E, free feeding, 20 weeks (group III). From the text: B6 mice (10 week old) were divided into control group (I), HF-HS group (II), and EPA group (III) (n=7 to 10), and the mice were raised for 20 weeks by free feeding of the following diet.

The test system of assay [1] is second factor group genes in the liver. The experiment in a line: Gene microarray analysis of the liver of mice on high fat/high sugar diet. It is filed as in vivo, mouse. Conditions: EPA group vs HF-HS group, 20 weeks. An excerpt: (2) Next, expression of genes in the liver was compared in 3 groups, namely, the control group fed with normal diet, the HF-HS group, and the EPA group. […] (A) HF-HS group/control group ≧2 and EPA group/HF-HS group ≦0.5. (B) HF-HS group/control group ≦0.5 and EPA group/HF-HS group ≧2. Liver was extirpated from the mice of each group, and RNA was extracted by homogenization to conduct gene microarray analysis of the liver. The genes were selected as described below. (1) Genes with group II/group I expression ratio of 2 or higher and group III/group II expression ratio of up to 1/2 were selected. (2) Genes with the group II/group I expression ratio of up to 1/2 and the group III/group II ratio of 2 or more were selected. […] (4) Genes which are (1) but not (3) were selected. (5) Genes which are (2) but not (3) were selected. Next, factors with the possibility of protein secretion into blood were selected from the genes (4), and then, genes satisfying any of relevance with lipid metabolism, relevance with inflammation, increase of expression in the liver of SREBP transgenic mouse were selected from these genes. Genes were selected from the genes (5) by conducting the procedure corresponding to (6).

The next assay deals with NASH model rats. Conditions: telmisartan administered for 10 weeks; cited from earlier work.

As to `CC/C=C\C/C=C\C/C=C\C/C=C\C/C=C\CCCC(=O)OCC` [EPA-E, ethyl icosapentate], the fatty liver entry with B6 mice was “fatty liver was not observed; also recorded: fatty liver was not induced”. The “group III/group II expression ratio, second factor (A) group genes” value in assay [1] (genes with group II/group I ratio of 2 or higher (Table 2)) is given as “up to 1/2”. The “group III/group II expression ratio, second factor (B) group genes” value in assay [1] (genes with group II/group I ratio of up to 1/2 (Table 3)) was at least 2.

Consider `CCCc1nc2c(C)cc(-c3nc4ccccc4n3C)cc2n1Cc1ccc(-c2ccccc2C(=O)O)cc1` [telmisartan], for which, in the assay with NASH model rats, the “expression of TIMP1 and TIMP2 mRNAs in the liver tissue” value is recorded as “decrease”; the liver fibrosis result is “suppression; also recorded: suppressed”.
